Results published in patent publication US9376418B2, “Substituted pyridine spleen tyrosine kinase (SYK) inhibitors” (Merck Sharp & Dohme Corp., priority 2012, dated 2016).
Where two headings read alike, the source gives them in different places.

Biological target: T1, recombinant human GST-SYK (Homo sapiens, UniProt P43405)
T1 construct: purchased Carna Biosciences 08-176
Assay: Homogeneous Time-Resolved Fluorescence (HTRF) assay for the recombinant human Syk enzyme
Format: biochemical
Procedure, shortened: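 Phosphorylation of a biotinylated Syk substrate peptide (250 nM) was run for 45 min at room temperature with 25 μM ATP and 5 mM Mg. It followed a 10-min preincubation of GST-hSYK ([…]) with compound in 15 mM Tris-HCl pH 7.5, 2 mM DTT. Product was detected by time-resolved fluorescence using a europium anti-phosphotyrosine antibody plus SA-APC in EDTA-containing quench buffer.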

[1] = HTRF assay, recombinant human GST-SYK, IC50 given as class symbols, read-out: rhSYK Activity

IC50 [1] | IC50 (recombinant GST-hSYK, 25 μM ATP, HTRF, read-out: IC50 (inhibition of human Syk activity)) | Compound
100 to 1000 nM | – | COc1nc(Nc2cc(C)cc(-c3ccc(N[C@H]4CC[C@H](C(=O)O)CC4)nc3)c2)ncc1Cl [Example 2.118, trans-4-[(5-{3-[(5-chloro-4-methoxypyrimidin-2-yl)amino]-5-methylphenyl}pyridin-2-yl)amino]cyclohexanecarboxylic acid]
< 100 nM | – | Cc1cc(Nc2ncc(Cl)c(C)n2)cc(-c2ccc(N[C@H]3CC[C@H](C(=O)O)CC3)nc2)c1 [Example 2.119, trans-4-[(5-{3-[(5-chloro-4-methylpyrimidin-2-yl)amino]-5-methylphenyl}pyridin-2-yl)amino]cyclohexanecarboxylic acid]
< 100 nM | – | Cc1cc(Nc2ncc(F)c(C)n2)cc(-c2ccc(N[C@H]3CC[C@H](C(=O)O)CC3)nc2)c1 [Example 2.120, trans-4-[(5-{3-[(5-fluoro-4-methylpyrimidin-2-yl)amino]-5-methylphenyl}pyridin-2-yl)amino]cyclohexanecarboxylic acid]
< 100 nM | – | COc1nc(Nc2cc(C)cc(-c3ccc(N[C@H]4CC[C@H](C(=O)O)CC4)nc3)c2)ncc1F [Example 2.121, trans-4-[(5-{3-[(5-fluoro-4-methoxypyrimidin-2-yl)amino]-5-methylphenyl}pyridin-2-yl)amino]cyclohexanecarboxylic acid]
100 to 1000 nM | – | COc1cc(-c2cccc(Nc3nccc(C(F)(F)F)n3)c2)ccn1 [Example 2.122, N-[3-(2-methoxypyridin-4-yl)phenyl]-4-(trifluoromethyl)pyrimidin-2-amine]
100 to 1000 nM | – | Cc1cc(Nc2nccc(C(F)(F)F)n2)cc(-c2ccnc(C(F)(F)F)c2)c1 [Example 2.123, N-{3-methyl-5-[2-(trifluoromethyl)pyridin-4-yl]phenyl}-4-(trifluoromethyl)pyrimidin-2-amine]
< 100 nM | – | Cc1cc(Nc2nccc(C(F)(F)F)n2)cc(-c2ccncc2)c1 [Example 2.124, N-(3-methyl-5-pyridin-4-ylphenyl)-4-(trifluoromethyl)pyrimidin-2-amine]
< 100 nM | – | Cc1cc(Nc2nccc(C(F)(F)F)n2)cc(-c2ccnc(O)c2)c1 [Example 2.125, 4-(3-methyl-5-{[4-(trifluoromethyl)pyrimidin-2-yl]amino}phenyl)pyridin-2-ol]
< 100 nM | – | Cc1cc(Nc2nccc(C(F)(F)F)n2)cc(-c2ccnc(N3CCNCC3)c2)c1 [Example 2.126, N-[3-methyl-5-(2-piperazin-1-ylpyridin-4-yl)phenyl]-4-(trifluoromethyl)pyrimidin-2-amine]
100 to 1000 nM | – | Cc1cc(Nc2nccc(C(F)(F)F)n2)cc(-c2ccnc(Br)c2)c1 [Example 2.127, N-[3-(2-bromopyridin-4-yl)-5-methylphenyl]-4-(trifluoromethyl)pyrimidin-2-amine]
< 100 nM | – | O=C(O)CCc1cc(-c2cccc(Nc3nccc(C(F)(F)F)n3)c2)ccn1 [Example 2.129, 3-[4-(3-{[4-(trifluoromethyl)pyrimidin-2-yl]amino}phenyl)pyridin-2-yl]propanoic acid]
< 100 nM | – | COc1ccnc(Nc2cc(C)cc(-c3ccnc(CCC(=O)O)c3)c2)n1 [Example 2.131, 3-(4-{3-[(4-methoxypyrimidin-2-yl)amino]-5-methylphenyl}pyridin-2-yl)propanoic acid]
< 100 nM | – | Cc1cc(Nc2nccc(C(F)(F)F)n2)cc(-c2ccnc(CCC(=O)O)c2)c1 [Example 2.133, 3-[4-(3-methyl-5-{[4-(trifluoromethyl)pyrimidin-2-yl]amino}phenyl)pyridin-2-yl]propanoic acid]
100 to 1000 nM | – | CCOC(=O)CCc1cc(-c2cc(C)cc(Nc3nccc(C)n3)c2)ccn1 [Example 2.134, ethyl 3-(4-{3-methyl-5-[(4-methylpyrimidin-2-yl)amino]phenyl}pyridin-2-yl)propanoate]
< 100 nM | – | Cc1cc(Nc2nccc(C)n2)cc(-c2ccnc(CCC(=O)O)c2)c1 [Example 2.135, 3-(4-{3-methyl-5-[(4-methylpyrimidin-2-yl)amino]phenyl}pyridin-2-yl)propanoic acid]
100 to 1000 nM | – | CCOC(=O)CCc1cc(-c2cc(C)cc(Nc3nccc(C4CC4)n3)c2)ccn1 [Example 2.136, ethyl 3-(4-{3-[(4-cyclopropylpyrimidin-2-yl)amino]-5-methylphenyl}pyridin-2-yl)propanoate]
< 100 nM | – | Cc1cc(Nc2nccc(C3CC3)n2)cc(-c2ccnc(CCC(=O)O)c2)c1 [Example 2.137, 3-(4-{3-[(4-cyclopropylpyimidin-2-yl)amino]-5-methylphenyl}pyridin-2-yl)propanoic acid]
< 100 nM | – | Cc1cc(Nc2nccc(C(F)(F)F)n2)cc(-c2ccc(C(C)O)nc2)c1 (stereo not shown) [Example 2.138, 1-[5-(3-Methyl-5-{[4-(trifluoromethyl)pyrimidin-2-yl]amino}phenyl)pyridin-2-yl]ethanol]
< 100 nM | – | Cc1cc(Nc2nccc(C(F)(F)F)n2)cc(-c2ccc(CC(=O)O)nc2)c1 [Example 3.1, 2-(5-(3-methyl-5-((4-(trifluoromethyl)pyrimidin-2-yl)amino)phenyl)pyridin-2-yl)acetic acid]
< 100 nM | – | Cc1cc(Nc2nccc(C(F)(F)F)n2)cc(-c2ccc(CC(=O)N(C)C)nc2)c1 [Example 3.2, N,N-dimethyl-2-(5-(3-methyl-5-((4-(trifluoromethyl)pyrimidin-2-yl)amino)phenyl)pyridin-2-yl)acetamide]

IC50 [1] | IC50 (recombinant GST-hSYK, 25 μM ATP, HTRF, read-out: IC50 (inhibition of human Syk activity)) | Compound
< 100 nM | – | COc1ccnc(Nc2cc(C)cc(-c3ccnc(N)c3)c2)n1 [Example 4.1, N-[3-(2-aminopyridin-4-yl)-5-methylphenyl]-4-methoxypyrimidin-2-amine]
< 100 nM | – | Cc1cc(Nc2nccc(C(F)(F)F)n2)cc(-c2ccc(N)nc2)c1 [Example 4.2, N-[3-(6-aminopyridin-3-yl)-5-methylphenyl]-4-(trifluoromethyl)pyrimidin-2-amine]
< 100 nM | – | Cc1cc(Nc2nccc(C(F)(F)F)n2)cc(-c2cncc(F)c2)c1 [Example 4.3, N-[3-(5-fluoropyridin-3-yl)-5-methylphenyl]-4-(trifluoromethyl)pyrimidin-2-amine]
100 to 1000 nM | – | Cc1cc(Nc2nccc(C(F)(F)F)n2)cc(-c2ccc(F)nc2)c1 [Example 4.4, N-[3-(6-fluoropyridin-3-yl)-5-methylphenyl]-4-(trifluoromethyl)pyrimidin-2-amine]
100 to 1000 nM | – | COc1ccc(-c2cc(C)cc(Nc3nccc(C(F)(F)F)n3)c2)cn1 [Example 4.5, N-[3-(6-methoxypyridin-3-yl)-5-methylphenyl]-4-(trifluoromethyl)pyrimidin-2-amine]
100 to 1000 nM | – | Cc1cc(Nc2nccc(C(F)(F)F)n2)cc(-c2ccc(C(F)(F)F)nc2)c1 [Example 4.6, N-{3-methyl-5-[6-(trifluoromethyl)pyridin-3-yl]phenyl}-4-(trifluoromethyl)pyrimidin-2-amine]
< 100 nM | – | Cc1cc(Nc2nccc(C(F)(F)F)n2)cc(-c2ccc(CO)nc2)c1 [Example 4.7, [5-(3-methyl-5-{[4-(trifluoromethyl)pyrimidin-2-yl]amino}phenyl)pyridin-2-yl]methanol]
100 to 1000 nM | – | Cc1cc(Nc2nccc(C(F)(F)F)n2)cc(-c2ccc(O)nc2)c1 [Example 4.8, 5-(3-methyl-5-{[4-(trifluoromethyl)pyrimidin-2-yl]amino}phenyl)pyridin-2-ol]
100 to 1000 nM | – | COc1cccc(-c2cc(C)cc(Nc3nccc(C(F)(F)F)n3)c2)n1 [Example 4.9]
100 to 1000 nM | – | COc1cc(-c2cc(C)cc(Nc3nccc(C(F)(F)F)n3)c2)ccn1 [Example 4.10]
100 to 1000 nM | – | Cn1cc(-c2cccc(Nc3nccc(C(F)(F)F)n3)c2)ccc1=O [Example 5.1, 1-Methyl-5-(3-{[4-(trifluoromethyl)pyrimidin-2-yl]amino}phenyl)pyridin-2(1H)-one]
100 to 1000 nM | – | Cn1ccc(-c2cccc(Nc3nccc(C(F)(F)F)n3)c2)cc1=O [Example 5.2, 1-methyl-4-(3-{[4-(trifluoromethyl)pyrimidin-2-yl]amino}phenyl)pyridin-2(1H)-one]
100 to 1000 nM | – | Cn1c(-c2cccc(Nc3nccc(C(F)(F)F)n3)c2)cccc1=O [Example 5.3, 1-methyl-6-(3-{[4-(trifluoromethyl)pyrimidin-2-yl]amino}phenyl)pyridin-2(1H)-one]
< 100 nM | – | CNC(=O)Nc1cc(Nc2nccc(C(F)(F)F)n2)cc(-c2cccnc2)c1 [Example 6.1, 1-Methyl-3-[3-(pyridin-3-yl)-5-{[4-(trifluoromethyl)pyrimidin-2-yl]amino}phenyl]urea]
< 100 nM | – | CCNC(=O)Nc1cc(Nc2nccc(C(F)(F)F)n2)cc(-c2cccnc2)c1 [Example 6.3, 1-ethyl-3-(3-pyridin-3-yl-5-{[4-(trifluoromethyl)pyrimidin-2-yl]amino}phenyl)urea]
< 100 nM | – | Nc1cc(Nc2nccc(C(F)(F)F)n2)cc(-c2ccncc2)c1 [Example 6.4, 5-pyridin-4-yl-N-[4-(trifluoromethyl)pyrimidin-2-yl]benzene-1,3-diamine]
< 100 nM | – | CC(=O)Nc1cc(Nc2nccc(C(F)(F)F)n2)cc(-c2ccncc2)c1 [Example 6.5, N-(3-pyridin-4-yl-5-{[4-(trifluoromethyl)pyrimidin-2-yl]amino}phenyl)acetamide]
< 100 nM | – | CCNC(=O)Nc1cc(Nc2nccc(C(F)(F)F)n2)cc(-c2ccc(C(=O)O)nc2)c1 [Example 6.6, 5-(3-[(ethylcarbamoyl)amino]-5-{[4-(trifluoromethyl)pyrimidin-2-yl]amino}phenyl)pyridine-2-carboxylic acid]
< 100 nM | 3.9 nM | CC(=O)Nc1cc(Nc2nccc(C(F)(F)F)n2)cc(-c2ccc(NC(C)(C)C(=O)O)nc2)c1 [Example 7.1, N-{5-[3-(acetylamino)-5-{[4-(trifluoromethyl)pyrimidin-2-yl]amino}phenyl]pyridin-2-yl}-2-methylalanine]
